Structure (SMILES)	melting point
c1ccc(CN2CCOC(c3nn[nH]n3)C2)cc1 (configuration not stated)	178 to 180 °C
N#Cc1ccc(Oc2cccc([N+](=O)[O-])c2)cc1	124 to 126 °C
Cc1occc1-c1nnc(S)n1-c1ccccc1	234 to 236 °C
N#Cc1ccc(Cl)cc1NC1CCCCC1	74 to 76 °C
Cc1cc(Cl)nc(-c2ccc([N+](=O)[O-])cc2)n1	184 to 186 °C
Cc1csc2nc(CCl)cc(=O)n12	100 to 104 °C
N#CCS(=O)(=O)c1cc(Br)ccc1Br	134 to 136 °C
O=C1c2ccncc2C(=O)N1CCO	106 to 108 °C
Cc1cc(C(=O)O)c(C)n1CC1CC1	179 to 181 °C
N#CC1(N2C(=O)C=CC2=O)CCCC1	43 to 45 °C
Cc1c(NS(=O)(=O)c2ccc(Cl)c([N+](=O)[O-])c2)c(=O)n(-c2ccccc2)n1C	227 to 229 °C
Cc1noc(C)c1S(=O)(=O)NCC(=O)O	113 to 115 °C
Cc1cc(C(=O)CCl)c(C)n1CC1CCCO1 (configuration not stated)	88 to 90 °C
Cn1cc2c(cc1=O)CCN2	204 to 206 °C
O=C(NC(C(=O)O)c1ccccc1)OCC1c2ccccc2-c2ccccc21 (configuration not stated)	170 to 172 °C
Clc1cc(Cl)cc(-c2nnc3ccc(Cl)nn23)c1	209 to 211 °C
CC(C)(C)OC(=O)N1CCN(C(=O)CN)CC1	95 to 97 °C
CC(C1CC2CCC1C2)n1c(N)cc(=O)[nH]c1=O (configuration not stated)	248 to 250 °C
Cc1nc(N)sc1Cl	100 to 102 °C
CS(=O)(=O)N1CCCC1C#N (configuration not stated)	62 to 64 °C
CCOC(=O)C(C(C)=O)C1CCS(=O)(=O)C1 (configuration not stated)	71 to 80 °C
Cn1nc(C(=O)O)cc1C1CC1	196 to 198 °C
O=C(O)CCc1nnc(-c2ccccc2)o1	144 to 146 °C

Structure (SMILES)	melting point
C(=C\c1ccncc1)/c1ccccc1	128 to 130 °C
O=C(c1ccc(Cl)cc1)c1ccccn1	63 to 65 °C
ClCc1csc(-c2ccccn2)n1	85 to 87 °C
O=c1[nH]c2ccccc2n2cncc12	349 to 351 °C
Cn1nc(I)c2ncccc21	186 to 188 °C
Cc1nn(-c2ccccc2)cc1N	81 to 83 °C
CC(C)(C)NC(=O)C1CCCCN1 (configuration not stated)	79 to 81 °C
Cn1ccc(C(=O)N2CCCC(C(=O)O)C2)cc1=O (configuration not stated)	208 to 210 °C
CC1(C)CC(=O)c2sc(N)nc2C1	212 to 214 °C
NS(=O)(=O)NCc1ccccn1	138 to 140 °C
NNc1ccc([N+](=O)[O-])cc1S(=O)(=O)Nc1ccccc1Cl	220 to 229 °C
O=C(O)c1sccc1S(=O)(=O)N1CCCC1	128 to 130 °C
O=C(O)C1CCN(c2ccc3cccc(O)c3n2)CC1	281 to 283 °C
NC1CCCc2[nH]ccc21 (configuration not stated)	83 to 85 °C
Cc1cc2nc(Cl)cc(=O)n2o1	203 to 204 °C
O=C(Nc1cccnc1)C(Cl)C(=O)c1ccccc1 (configuration not stated)	86 to 90 °C
Cc1nc2sccn2c1C(N)=S	232 to 234 °C
C1CCC(c2nnc3n2CCCC3)NC1 (configuration not stated)	107 to 109 °C
Cn1ncc(Br)c(Br)c1=O	114 to 116 °C
CC(Cl)C(=O)NC12CC3CC(CC(C3)C1)C2 (configuration not stated)	103 to 105 °C
N#Cc1cc2c([nH]c1=O)CCCCC2	253 to 255 °C
Cn1cc(C#N)cc1C(=O)C(Cl)(Cl)Cl	146 to 148 °C
NCc1ccc(-c2ccc3c(c2)CCO3)cc1	77 to 79 °C

Structure (SMILES)	melting point
Brc1ccc(-n2cccn2)cc1	69 to 71 °C
CC(C)(C)OC(=O)N1CCC(C(=O)O)(c2ccccc2)CC1	116 to 118 °C
NC(=O)c1c(NC(=O)CCC(=O)O)sc2c1CCC2	231 to 233 °C
O=C1NC(=O)C2(CCOc3ccccc32)N1 (configuration not stated)	120 to 122 °C
CCOc1ccc(-c2nc(N)sc2C)cc1	98 to 100 °C
Sc1ncccc1Cl	204 to 206 °C
CN(C(=O)CC#N)C1CCCCC1	88 to 90 °C
CCCC(N)c1nnn[nH]1 (configuration not stated)	277 to 279 °C
Cc1n[nH]c(C)n1	127 to 131 °C
CN1CCN(S(N)(=O)=O)C(c2ccccc2)C1 (configuration not stated)	109 to 111 °C
NC(=O)c1[nH]cnc1N	249 to 251 °C
Nc1nc(-c2cccs2)c(-c2cccs2)s1	139 to 141 °C
Cc1nc2ccccc2n1CCO	147 to 149 °C
O=S(=O)(NC1CC1)c1ccc(Cl)nc1	94 to 96 °C
NC(=O)c1ccc(-n2cccc2)cc1	237 to 239 °C
CCC(C)(CNC(=O)OC(C)(C)C)C(=O)O (configuration not stated)	113 to 115 °C
Cc1ccc2nc(NCc3ccccc3)sc2c1	175 to 177 °C
CC(=O)N1CCN(Cc2ccc(C(=O)O)cc2)CC1	229 to 231 °C
Cc1n[nH]c(C)c1C=O	85 to 87 °C
CCOCc1nnc(N)o1	118 to 120 °C
Sc1nnc(-c2ccccc2Br)o1	200 to 202 °C
O=C1C=CC=NC1=C(O)Nc1ccncc1	164 to 166 °C

Further lines, results first:

melting point	Structure (SMILES)
150 to 155 °C	CC(=O)N(c1nc(CCl)cs1)c1ccccc1F
98 to 100 °C	N#Cc1cccc(NC(=O)CCCl)c1
69 to 71 °C	NNC(=O)CCOc1ccccc1
69 to 71 °C	CN(C)C(=O)c1cccnc1Cl
55 to 57 °C	COc1ccc(-c2csc(C)n2)cc1
71 to 73 °C	O=[N+]([O-])c1cc(S(=O)(=O)C(F)F)ccc1Cl
92 to 94 °C	O=c1c(Cl)c(Cl)cnn1-c1cccc(C(F)(F)F)c1
198 to 200 °C	CCNS(=O)(=O)c1cc(/C=C/C(=O)O)ccc1OC
93 to 95 °C	COC(=O)c1ccn2cncc2c1
190 to 192 °C	COc1cccc(CNc2ccc3[nH]c(=O)[nH]c3c2)c1
52 to 55 °C	COC(=O)c1nnc2c(Cl)cccn12
218 to 220 °C	Cc1ccc(-n2cnnc2SCC(=O)O)cc1
86 to 90 °C	Nc1ncc(C(F)(F)F)cc1Cl
185 to 187 °C	Cc1ccc(C)n1-c1ccsc1C(=O)O
93 to 95 °C	NC(=O)C(N)Cc1ccccc1 (configuration not stated)
121 to 123 °C	O=C(O)C1CC(=O)N(c2ccc(F)cc2)C1 (configuration not stated)
42 to 44 °C	CC(=O)c1ccc(OC(C)C)cc1
97 to 99 °C	Fc1ccc2ccc(Cl)nc2c1
160 to 162 °C	O=C(O)c1cnc(-c2ccc(C(F)(F)F)cc2)s1
73 to 75 °C	COc1ccc(C)cc1NC(=O)CCl
136 to 138 °C	O=C(O)CNS(=O)(=O)c1c(F)cc(F)cc1Br
206 to 208 °C	Cc1ccc(C)c2[nH]c(C(=O)O)cc12
100 to 102 °C	NCc1cccc(NC(=O)c2cccc(F)c2)c1
50 to 52 °C	O=C(Nc1cccc(F)c1)OCC(F)(F)F
182 to 184 °C	CC(=O)Nc1[nH]c(=O)ccc1[N+](=O)[O-]

melting point	Structure (SMILES)
60 to 62 °C	CC(C)(C)Sc1ccc(C#N)nc1
119 to 122 °C	CCOc1ccc(C(=O)NCC(=O)O)cc1OCC
49 to 51 °C	COC(=O)c1ccc(C(F)(F)F)cc1SC
65 to 73 °C	CCOC(=O)c1c(-c2ccccc2Cl)csc1N
219 to 221 °C	Cc1nc(O)c2cc(Br)ccc2n1
94 to 96 °C	O=Cc1cc(Cl)c2ccccc2c1O
50 to 52 °C	COc1c(F)cc(Br)cc1S(=O)(=O)Cl
142 to 144 °C	CS(=O)(=O)c1ccc(CNC(=O)CCl)cc1
168 to 170 °C	CCOC(=O)c1c(N)nn2cc[nH]c12
219 to 221 °C	COc1ccccc1-c1ncc(C(=O)O)[nH]1
144 to 146 °C	NNS(=O)(=O)Cc1ccc(F)cc1
218 to 220 °C	Cc1cc(NC(N)=S)n(C)n1
150 to 152 °C	Cc1cccc(NC(=O)C(Br)C(C)C)c1C (configuration not stated)
121 to 123 °C	CCC(=O)Nc1ccc(C)c(N)c1
144 to 146 °C	O=C(O)c1cn(-c2ccc(Br)cc2Cl)nn1
76 to 78 °C	O=C1C(Br)CCN1c1ccccc1F (configuration not stated)
149 to 151 °C	NNC(=O)c1cc(F)ccc1Br
72 to 74 °C	CCOC(=O)c1ccc(N2CC(N)C2)nc1
126 to 128 °C	NS(=O)(=O)N1CCC(OC(=O)C(F)(F)F)CC1
195 to 197 °C	O=C(NCc1cccs1)c1ccc(-n2ccnc2S)cc1
70 to 72 °C	Cn1ccnc1C(=O)c1ccc(N)cc1
238 to 240 °C	CC(C)N1C(=O)c2ccc(C(=O)O)cc2S1(=O)=O
190 to 192 °C	Cc1cnc(NC(=O)c2ccc(Br)o2)s1
151 to 153 °C	O=C(O)COc1cc(F)ccc1F
207 to 209 °C	CS(=O)(=O)c1ccc(N)c(Br)c1

melting point	Structure (SMILES)
62 to 64 °C	COc1cc(C=O)cc(OC)c1OCc1ccccc1
81 to 83 °C	CON(C)S(=O)(=O)c1ccc(Br)cc1
109 to 111 °C	O=C(O)C1CC1c1c(F)cccc1Cl (configuration not stated)
197 to 199 °C	NS(=O)(=O)c1ccc2c(c1)OCCO2
132 to 134 °C	CN(CC(C)(C)C)C(=O)c1cccc(C(=O)O)c1
251 to 253 °C	O=C(O)c1ccc(-c2ccc(Cl)cc2)cc1F
170 to 172 °C	O=C(c1ccc(O)cc1)c1ccc(F)cc1
72 to 74 °C	CCOc1cccc2cc(C(C)=O)oc12
148 to 150 °C	O=C(O)CNC(=O)c1cccc(Br)c1
138 to 140 °C	Nc1cnc2ccccc2n1
114 to 116 °C	CC(C)(C)C(=O)COc1ccc([N+](=O)[O-])cc1Cl
123 to 125 °C	CCSCc1ccc(C(=O)O)cc1
235 to 237 °C	O=C(O)c1cc(-c2ccc3c(c2)CCO3)no1
108 to 110 °C	O=C(O)c1ccccc1OCc1cccc(Br)c1
93 to 95 °C	CC(c1ccc(F)cc1F)S(N)(=O)=O (configuration not stated)
91 to 93 °C	CCC(CC)NS(=O)(=O)c1ccc(Cl)nc1
159 to 161 °C	CC(Nc1ccc(Cl)nn1)c1ccccc1 (configuration not stated)
298 to 300 °C	O=C(CCl)Nc1ccc2c(c1)C(=O)c1ccccc1C2=O
213 to 215 °C	Cn1ncc(C(=O)O)c1-c1ccccc1
171 to 173 °C	Cn1ccnc1SCC(=O)Nc1ccc(C(=O)O)cc1
139 to 141 °C	Cc1sc(=O)n(CC(=O)O)c1-c1ccc(F)cc1
50 to 52 °C	COC(=O)c1cc(Cl)cc(S(=O)(=O)Cl)c1
166 to 168 °C	COc1ccccc1C1(C)CC1C(=O)O (configuration not stated)
142 to 144 °C	N#Cc1cc(S(N)(=O)=O)ccc1F

From a melting point compilation (Tetko et al.)
